Test results published in ChEMBL document CHEMBL1201862, “PubChem BioAssay data set” (2004).
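How tested: cells in 96-well plates exposed to compound for 48 hours at five concentrations. Abbreviation: GI50, concentration required for 50% inhibition of growth.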 Calls of active or inactive are those of the source. Rule as the data show it: active = GI50 up to about 1.1 µM and inactive = higher.

Legend:
Experiment in all cases: NCI tumour cell line growth inhibition, 48 h
LOX IMVI = test system: LOX IMVI
MDA-MB-435 = test system: MDA-MB-435
SK-MEL-2 = test system: SK-MEL-2
MDA-MB-231 = test system: MDA-MB-231
A549 = test system: A549
DU-145 = test system: DU-145
HOP-62 = test system: HOP-62
SNB-19 = test system: SNB-19
NCI/ADR-RES = test system: NCI/ADR-RES
UACC-62 = test system: UACC-62
OVCAR-4 = test system: OVCAR-4
Malme-3M = test system: Malme-3M
HOP-92 = test system: HOP-92
RXF 393 = test system: RXF 393
HL-60 = test system: HL-60
NCI-H522 = test system: NCI-H522
T47D = test system: T47D
CAKI-1 = test system: CAKI-1
MOLT-4 = test system: MOLT-4
IGROV-1 = test system: IGROV-1
MDA-N = test system: MDA-N
M14 = test system: M14
EKVX = test system: EKVX
OVCAR-8 = test system: OVCAR-8
KM12 = test system: KM12
SNB-75 = test system: SNB-75
SK-MEL-28 = test system: SK-MEL-28
ACHN = test system: ACHN
SN12C = test system: SN12C
TK-10 = test system: TK-10
SF-295 = test system: SF-295
CCRF-CEM = test system: CCRF-CEM
RPMI-8226 = test system: RPMI-8226
BT-549 = test system: BT-549
HT-29 = test system: HT-29
UO-31 = test system: UO-31
SR = test system: SR
OVCAR-5 = test system: OVCAR-5
NCI-H460 = test system: NCI-H460
UACC-257 = test system: UACC-257
A498 = test system: A498
SK-MEL-5 = test system: SK-MEL-5
U-251 = test system: U-251
OVCAR-3 = test system: OVCAR-3
HCT-15 = test system: HCT-15
NCI-H23 = test system: NCI-H23
NCI-H226 = test system: NCI-H226
PC-3 = test system: PC-3
SF-268 = test system: SF-268
SW-620 = test system: SW-620
K562 = test system: K562

Compound: c1ccc2c(c1)c1ccccc1n2Cn1c2ccccc2c2ccccc21
- GI50 (LOX IMVI): > 100 µM (inactive)
- GI50 (MDA-MB-435): > 100 µM (inactive)
- GI50 (SK-MEL-2): > 100 µM (inactive)
- GI50 (MDA-MB-231): > 100 µM (inactive)
- GI50 (A549): > 100 µM (inactive)
- GI50 (DU-145): > 100 µM (inactive)
- GI50 (HOP-62): > 100 µM (inactive)
- GI50 (SNB-19): > 100 µM (inactive)
- GI50 (NCI/ADR-RES): > 100 µM (inactive)
- GI50 (UACC-62): > 100 µM (inactive)
- GI50 (OVCAR-4): > 100 µM (inactive)
- GI50 (Malme-3M): > 100 µM (inactive)
- GI50 (HOP-92): > 100 µM (inactive)
- GI50 (RXF 393): > 100 µM (inactive)
- GI50 (HL-60): > 100 µM (inactive)
- GI50 (NCI-H522): > 100 µM (inactive)
- GI50 (T47D): > 100 µM (inactive)
- GI50 (CAKI-1): > 100 µM (inactive)
- GI50 (MOLT-4): > 100 µM (inactive)
- GI50 (IGROV-1): > 100 µM (inactive)
- GI50 (MDA-N): > 100 µM (inactive)
- GI50 (M14): > 100 µM (inactive)
- GI50 (EKVX): > 100 µM (inactive)
- GI50 (OVCAR-8): > 100 µM (inactive)
- GI50 (KM12): > 100 µM (inactive)
- GI50 (SNB-75): 30.8 µM (inactive)
- GI50 (SK-MEL-28): > 100 µM (inactive)
- GI50 (ACHN): > 100 µM (inactive)
- GI50 (SN12C): > 100 µM (inactive)
- GI50 (TK-10): > 100 µM (inactive)
- GI50 (SF-295): > 100 µM (inactive)
- GI50 (CCRF-CEM): > 100 µM (inactive)
- GI50 (RPMI-8226): > 100 µM (inactive)
- GI50 (BT-549): > 100 µM (inactive)
- GI50 (HT-29): > 100 µM (inactive)
- GI50 (UO-31): > 100 µM (inactive)
- GI50 (SR): > 100 µM (inactive)
- GI50 (OVCAR-5): > 100 µM (inactive)
- GI50 (NCI-H460): > 100 µM (inactive)
- GI50 (UACC-257): > 100 µM (inactive)
- GI50 (A498): > 100 µM (inactive)
- GI50 (SK-MEL-5): > 100 µM (inactive)
- GI50 (U-251): > 100 µM (inactive)
- GI50 (OVCAR-3): > 100 µM (inactive)
- GI50 (HCT-15): > 100 µM
- GI50 (NCI-H23): > 100 µM (inactive)
- GI50 (NCI-H226): > 100 µM (inactive)
- GI50 (PC-3): > 100 µM (inactive)
- GI50 (SF-268): > 100 µM (inactive)
- GI50 (SW-620): > 100 µM (inactive)
- GI50 (K562): > 100 µM (inactive)
